Drawing on ChEMBL document CHEMBL4002643, “Tubulin-binding dibenz[c,e]oxepines: Part 2. Structural variation and biological evaluation as tumour vasculature disrupting agents” (Bioorg Med Chem, 2017), this text covers GI50, Activity and TGI for three compounds.

Molecules are shown by their SMILES. Activity calls are given as the source filed them. The rule behind the calls is not given here.

The test system of series [1] is CCRF-CEM. Description: Cytotoxicity against human CCRF-CEM cells assessed as growth inhibition after 48 hrs by SRB assay. Format: functional. (In general: The SRB assay estimates cell density from bound dye.)
For series [2], the system named is K562. Description: Cytotoxicity against human K562 cells assessed as growth inhibition after 48 hrs by SRB assay. In kind it is functional. Conditions: K562, 48 h.
In series [3] the test system is EKVX. Description: Cytotoxicity against human EKVX cells assessed as growth inhibition after 48 hrs by SRB assay. Format: functional.
Series [4] has as its system HOP-92. Description: Cytotoxicity against human HOP92 cells assessed as growth inhibition after 48 hrs by SRB assay. In kind it is functional. Conditions: HOP-92, 48 h.
Series [5] concerns NCI-H460. Description: Cytotoxicity against human NCI-H460 cells assessed as growth inhibition after 48 hrs by SRB assay. In kind it is functional. As to conditions: NCI-H460, 48 h.
The subject of series [6] is HCC 2998. As to the kind of experiment: Cytotoxicity against human HCC2998 cells assessed as growth inhibition after 48 hrs by SRB assay. Format: functional. Conditions: HCC 2998, 48 h.
Series [7] has as its system LOX IMVI. As to the kind of experiment: Cytotoxicity against human LOXIMVI cells assessed as growth inhibition after 48 hrs by SRB assay. Format: functional.
In series [8] the test system is M14. Description: Cytotoxicity against human M14 cells assessed as growth inhibition after 48 hrs by SRB assay. In kind it is functional. As to conditions: M14, 48 h.
Series [9] deals with Malme-3M. Description: Cytotoxicity against human MALME-3M cells assessed as growth inhibition after 48 hrs by SRB assay. In kind it is functional.
The test system of series [10] is SK-MEL-5. As to the kind of experiment: Cytotoxicity against human SK-MEL-5 cells assessed as growth inhibition after 48 hrs by SRB assay. In kind it is functional. Conditions: SK-MEL-5, 48 h.
For series [11], the system named is SN12C. Description: Cytotoxicity against human SN12C cells assessed as growth inhibition after 48 hrs by SRB assay. In kind it is functional.
Series [12] deals with TK-10. As to the kind of experiment: Cytotoxicity against human TK10 cells assessed as growth inhibition after 48 hrs by SRB assay. In kind it is functional. As to conditions: TK-10, 48 h.
Series [13] deals with DU-145. As to the kind of experiment: Cytotoxicity against human DU145 cells assessed as growth inhibition after 48 hrs by SRB assay. As to conditions: DU-145, 48 h. In kind it is functional.
The subject of series [14] is DLD-1. As to the kind of experiment: Induction of vascular shutdown in human DLD1 cells xenografted in Balb/C immunodeficient nude mouse at 400 mg/kg, iv by […] dye-based microscopic method. In kind it is functional, organism-based. Conditions: TDE = time-dependent effect.
Series [15] relates to DLD-1. Description: Induction of vascular shutdown in human DLD1 cells xenografted in Balb/C immunodeficient nude mouse assessed as vascular element counts at 400 mg/kg, iv at 1 hr post dose by […] dye-based microscopic method (reference value: 3.73 +/- 3.1%). Format: functional. (Xenograft models place foreign cells or tissue in a host animal.)
The test system of series [16] is DLD-1. Description: Induction of vascular shutdown in human DLD1 cells xenografted in Balb/C immunodeficient nude mouse assessed as vascular element counts at 400 mg/kg, iv at 4 hrs post dose by […] dye-based microscopic method (reference value: 3.73 +/- 3.1%). Format: functional.
The subject of series [17] is DLD-1. Description: Induction of vascular shutdown in human DLD1 cells xenografted in Balb/C immunodeficient nude mouse assessed as vascular element counts at 400 mg/kg, iv at 24 hrs post dose by […] dye-based microscopic method (reference value: 3.73 +/- 3.1%). In kind it is functional.
For series [18], the system named is DLD-1. As to the kind of experiment: Vascular disrupting activity in human DLD1 cells xenografted in Balb/C immunodeficient nude mouse assessed as induction of necrosis by measuring necrotic area at 400 mg/kg, iv at 1 hr post dose by haematoxylin and eosin staining-based assay (reference value: 19 +/- 9.6%). Format: functional.
Series [19] deals with DLD-1. As to the kind of experiment: Vascular disrupting activity in human DLD1 cells xenografted in Balb/C immunodeficient nude mouse assessed as induction of necrosis by measuring necrotic area at 400 mg/kg, iv at 4 hrs post dose by haematoxylin and eosin staining-based assay (reference value: 19 +/- 9.6%). Format: functional.
The test system of series [20] is DLD-1. As to the kind of experiment: Vascular disrupting activity in human DLD1 cells xenografted in Balb/C immunodeficient nude mouse assessed as induction of necrosis by measuring necrotic area at 400 mg/kg, iv at 24 hrs post dose by haematoxylin and eosin staining-based assay (reference value: 19 +/- 9.6%). Format: functional.
Series [21] has as its system Mus musculus. Description: Toxicity in human DLD1 cells xenografted Balb/C immunodeficient nude mouse assessed as body weight loss at 200 to 400 mg/kg, iv administered day 2 and 4 measured 14 days post dose. Format: organism-based. As to conditions: in vivo, 336 h.
For series [22], the system named is Calu-6. Description: Antitumor activity against human Calu6 cells xenografted in nu/nu CBA mouse assessed as tumor growth inhibition at 67.5 to 135 mg/kg, ip administered on day 1 and 5 measured on day 2 and 6 post dose. In kind it is functional, organism-based.
The test system of series [23] is Calu-6. Description: Antitumor activity against human Calu6 cells xenografted in nu/nu CBA mouse assessed as tumor growth inhibition at 67.5 to 135 mg/kg, ip administered on day 1 and 5 measured on day 3 to 4 and day 7 to 16 post dose. In kind it is functional, organism-based.
The test system of series [24] is Mus musculus. As to the kind of experiment: Toxicity in human Calu6 cells xenografted nu/nu CBA mouse assessed as change in body weight at 67.5 to 135 mg/kg, ip administered on day 1 and 5 measured daily over 12 days. Format: organism-based. As to conditions: in vivo, 288 h.

For the compound `COc1ccc2c(c1)COCc1cc(OC)c(OC)c(OC)c1-2`, the GI50 is 80 nM in [1]; 40 nM in series [2]; 600 nM in series [3]; over 100000 nM in series [4]; 170 nM in [5]; 220 nM in series [6]. Further, the GI50 is 210 nM in [7]; 50 nM in series [8]; over 100000 nM in [9]; 30 nM in series [10]; 830 nM in [11]; over 100000 nM in series [12]. In addition, the GI50 in series [13] worked out at 180 nM.
In the case of `COc1ccc2c(c1OP(=O)([O-])[O-])COCc1cc(OC)c(OC)c(OC)c1-2.[Na+].[Na+]`, the GI50 turned out to be 290 nM in series [1]; 280 nM in series [2]; 680 nM in series [3]; 360 nM in series [5]; 420 nM in series [6]; 660 nM in series [7]. The GI50 in [8] was found to be 270 nM; in series [9], 2510 nM; in [10], 260 nM; in series [11], 720 nM; in series [13] it was 390 nM. The Activity entry was “Tde” in series [14]; 0.33% in series [15]; 1.96% in series [16]; 0.95% in series [17]; 27.1% in series [18]; 26% in series [19]. The Activity is listed as 74.1% in [20] and “Non-Toxic” in series [21].
For `COc1ccc2c(c1O)COCc1cc(OC)c(OC)c(OC)c1-2`, the GI50 in series [1] was found to be 40 nM; in series [2], 40 nM; in series [4], 590 nM; in series [5], 310 nM; in series [6] it was 320 nM; in series [7], 80 nM. Moreover, the GI50 in series [8] is 50 nM; in series [10] it was 40 nM; in series [11], 210 nM; in series [12], over 100000 nM; in series [13], 60 nM. Also, the TGI result in series [22] is “Active”. In addition, the TGI result in series [23] was “inactive”. In series [24], the Activity result is “Non-Toxic”.

By GI50 is commonly meant the concentration giving 50% growth inhibition.
